Experimental data: paper PMC2931804 (Clinical cancer research : an official journal of the …, 2010)

Assays:
[1] = vorinostat with FOLFOX; cited from earlier work
[2] = FU plasma pharmacokinetics; format: in vivo, human

O=c1[nH]cc(F)c(=O)[nH]1 [FU, 5-fluorouracil]
FU clearance at higher vorinostat dose-levels [1]: lower FU clearance
FU Cmax with vorinostat relative to without (times lower) ([2]; 1,700 mg vorinostat once daily, cycle 2 vs cycle 1, statistically significant): 0.82 times
Change in FU clearance with the addition of vorinostat ([2]; once-daily or twice-daily MTD): did not observe any decrease
